Test results: US20110165198A1, “METHOD FOR REDUCING LIPID ABSORPTION BY AN ANIMAL” (priority 2008, published 2011)

Columns and labels:
C57bl6j mice [1] = experiment: Lipid excretion in feces of mice fed a high fat diet; type: in vivo
From the text: (§1) Adult male […] purchased at 8 week of age from Janvier Elevage (Le Genest-St-Isle, France) were individually housed and maintained ad libitum on high fat diet and water for 2 weeks. Seven mice were randomly allocated in 3 groups and fed with a high fat diet (lipids represented 50% of daily energy) during 2 weeks. For one kilogram, the composition of the high fat diet was: 235 g of casein, 201 g of saccharose, 3.5 g L-cystine, 85 g of starch, 116 g of maltodextrine, 60 g of cellulose, 12 g of vitamins mix, 51.5 g de mineral mix and 236 g of lard and 13 g of canola oil (UPAE, Jouy en Josas, France). Then, N-oleoyl-ethanolamide or (Z)-(R)-9-octadecenamide, N-(2-hydroxyethyl, 1-methyl) was added to the diet at the concentration of 100 mg/kg/bw. The mice are kept under treatment during 4 weeks. During the nutritional intervention, daily food intake has been monitored and the mice were weighted 3 times per week. During the last week of the experiment, the mice were kept during 5 days in metabolic cages to collect urine and feces. Lipids were extracted from feces after acidification using chloridric acid using chloroform/methanol (2:1 v/v) method. Total lipids were weighted, results were reported in mg of lipids per g of feces weight. Fat absorption was assessed using the following formula: Fat Absorption (% intake)=100*((Fat intake, g/d-fecal fat excretion, g/d)/fat intake). Example 1 was repeated except that N-oleoyl-ethanolamide as added to the diet at two different concentrations (0.1 or 1 g/kg/bw).

C57bl6j mice [2] = experiment: Intestinal lipid (fat) absorption in mice fed a high fat diet; type: in vivo
From the text: as §1

[3] = given orally in diet at 0.1 g/kg/bw (group C1 of Table 2), Example 2
[4] = given orally in diet at 100 mg/kg/bw, 4 weeks, feces collected over 5 days in last week, Example 1
[5] = given orally in diet at 1 g/kg/bw (group C2 of Table 2), Example 2
[6] = given orally in diet at 100 mg/kg/bw, 4 weeks, Fat Absorption (% intake), Example 1

Structure (SMILES)	Lipid Excretion (mg/g of Feces) MV (C57bl6j mice [1]; [3])	Lipid Excretion (mg/g of Feces) MV (C57bl6j mice [1]; [4])	Lipid Excretion (mg/g of Feces) MV (C57bl6j mice [1]; [5])	Intestinal Lipid Absorption (%) MV (C57bl6j mice [2]; [3]) [%]	Intestinal Lipid Absorption (%) MV (C57bl6j mice [2]; [6]) [%]	Intestinal Lipid Absorption (%) MV (C57bl6j mice [2]; [5]) [%]
CCCCCCCC/C=C\CCCCCCCC(=O)NCCO [C1, N-oleoyl-ethanolamide]	55.31 mg/g of Feces	53.7 mg/g of Feces	45.56 mg/g of Feces	97.4	95.61	97.76
CCCCCCCC/C=C\CCCCCCCC(=O)N[C@H](C)CO [C2, (Z)-(R)-9-octadecenamide, N-(2-hydroxyethyl,1-methyl)]		65.6 mg/g of Feces			95.05	
